Experimental findings from patent publication US11045409B2, “Composition comprising a water-insoluble solid organic UV-screening agent and a compound capable of establishing hydrogen bonds” (L'OREAL, priority 2013, dated 2021) are described below.

The series in a line: Maximum solubility of UV-screening agents in compound (B)/isododecane mixtures. In kind it is physicochemical. Conditions: sonication 45° C. 30 minutes, stable two months at room temperature. As to the method: Solubility Test of the Screening Agents (A) in Mixtures of Compounds (B) and of Isododecane —
300 mg of water-insoluble solid UV-screening agent (A) or of UV-screening agent outside the invention were weighed out in a 10 ml flask, and compound (B) (as a mixture at 50% by weight in isododecane) was then added in increasing amounts until dissolution of the screening agent was complete. The dissolution was performed by sonication at 45° C. for 30 minutes, followed by cooling to room temperature. […] The maximum solubility was given in w/w %, which represents the mass percentage of UV-screening agent in the (B)/isododecane/UV-screening agent mixture. The maximum solubility of the solid screening agent (A) in a solution of isododecane alone (Bo) was also measured as reference.

Setting [1] is: in compound (B1) at 50% by weight in isododecane.
Where [2] appears, read: in compound (B2) at 50% by weight in isododecane.
The mark [3] stands for this setting: in isododecane alone (B0), reference.

Each structure is given as a SMILES string.

`COc1ccc(C(=O)CC(=O)c2ccc(C(C)(C)C)cc2)cc1` [UV-screening agent No. 1, Butylmethoxydibenzoylmethane]: the “Maximum solubility of the UV-screening agent” value (from here on “Maximum solubility”) is, setting by setting: under setting [1], 15 w/w %; under setting [2], 15 w/w %; under setting [3], 1 w/w %.

As to `Cc1cc(CC(C)C[Si](C)(O[Si](C)(C)C)O[Si](C)(C)C)c(O)c(-n2nc3ccccc3n2)c1` (stereo not drawn) [UV-screening agent No. 2, Drometrizole Trisiloxane], the “Maximum solubility” value by setting is: under setting [1], 30 w/w %; under setting [2], 30 w/w %; under setting [3], 5 w/w %.

As for `CCCCCCCCOC(=O)/C(C#N)=C\C=C\N(CCO)CCO` [UV-screening agent No. 3], the “Maximum solubility” value by setting is: under setting [1], 5 w/w %; under setting [2], 2.5 w/w %; under setting [3], “insoluble”.

Turning to `CCCCCCCCOC(=O)/C(C#N)=C\C=C\N(CC)CC` [UV-screening agent No. 4], the “Maximum solubility” value was 2.5 w/w % under setting [1], 5 w/w % under setting [2] and “insoluble” under setting [3].

In the case of `CCCCC(CC)COc1ccc(-c2nc(-c3ccc(OC)cc3)nc(-c3ccc(OCC(CC)CCCC)cc3O)n2)c(O)c1` (stereo not drawn) [UV-screening agent No. 8, 2,4-bis{[4-(2-ethylhexyloxy)-2-hydroxy]phenyl}-6-(4-methoxyphenyl)-1,3,5-triazine], the “Maximum solubility” value is, setting by setting: under setting [1], 5 w/w %; under setting [2], 5 w/w %; under setting [3], 1 w/w %.
